The record followed here is patent US6869797B2, “Method for more efficient electroporation” (Stratagene California, priority 1998, dated 2005).

The test system of assay [1] is E. coli. Put plainly: Effect of additives added to thawed competent cells on electroporation efficiency (pCMV-Script plasmid). The settings on record: added after thawing, colonies with additive divided by colonies without. It counts as cell-based. How it is done:
Specifically, galactose (an aldohexose monosaccharide), maltose (an aldohexose disaccharide), mannitol (an aldohexose alcohol), and sorbitol (an aldohexose alcohol) additives were tested.
After two hours of freezing, competent cells were thawed and amounts varying between 0.1% and 5.0% of various sugar or sugar aldoses were added to the thawed cells. 1 μl of 10 pg/μl plasmid, pCMV-Script (Stratagene #211199) in TE buffer or water (or other low-ionic strength buffer) was added to 40 μl of the treated cells in a chilled 1.5 ml Microfuge tube. The cells were gently mixed and chilled.
The DNA-cell mixture was transferred to a chilled electroporation cuvette. The cuvette was pulsed once, using a Bio-Rad II Gene Pulsar, at 1.7 kV (kilo Volts), 200 Ω and 25 μF. The cuvette was immediately removed and 960 μl of SOC medium (2 ml of 20% glucose and 1 ml of 2M Mg per 100 ml of SOB medium) was added to resuspend the cells.
That suspension was transferred to a sterile 15-ml Falcon 2059 polypropylene tube and shaken at 225-250 rpm at 37° C. for 1 hour. We pipetted 2.5 μl of transformed cells into a 100 μl pool of SOC medium on an Amp plate (Sambrook et al. 1997). The cell/media mixture was spread over the Amp plates. The plates were incubated overnight (16-20 hours) at 37° C.

The test system of assay [2] is XL1-Blue cells. The assay can be described thus: Effect of sorbitol added before freezing on electrotransformation efficiency (pUC18 plasmid). Particulars: average of 6 values. It counts as cell-based, E. coli. The protocol: The effect of adding sugars, prior to freezing the cells, was tested for improved electroporation efficiency. Sorbitol was chosen as the first test compound.
To determine the optimal concentration of sorbitol, the above protocol was followed to produce electrocompetent bacterial cells. However, before freezing the cells, a solution of sorbitol was added such that the final concentrations of the suspension of cells varied from 0%, 1.0%, 2.0%, and 2.5%.
1 μl of 10 pg/μl plasmid, pUC18 (New England Biolabs) in TE buffer or water (or other low-ionic strength buffer), was added to 40 μl of the treated cells in a chilled 1.5 ml Microfuge tube. Transformed cells were obtained by following the above protocol. Various experiments were run to determine the efficiency of transformation. Five different preparations were tested in triplicate, and each preparation was plated in duplicate.

[3] abbreviates: additive final concentration 1.0%.
The mark [4] stands for this setting: additive final concentration 2.0%.
The mark [5] stands for this setting: additive final concentration 0.75%.

The structures appear in SMILES notation.

On to `OC[C@H]1O[C@H](O[C@H]2[C@H](O)[C@@H](O)C(O)O[C@@H]2CO)[C@H](O)[C@@H](O)[C@@H]1O` (mixture of isomers) [maltose], for which the Relative efficiency in assay [1] (setting [3]) is on record as 1.50; in assay [1] (additive final concentration 2.5%) it was 3.00; in assay [1] (additive final concentration 3.0%), 1.30; in assay [1] (additive final concentration 4.0%), 1.50.

In the case of `O=C[C@H](O)[C@@H](O)[C@@H](O)[C@H](O)CO` [galactose], the Relative efficiency in assay [1] (additive final concentration 0.5%) stood at 2.20; in assay [1] (setting [3]), 1.50; in assay [1] (setting [4]) it was 2.40.

As to `OC[C@@H](O)[C@@H](O)[C@H](O)[C@H](O)CO` [mannitol], the Relative efficiency in assay [1] (setting [5]) was found to be 3.00; in assay [1] (setting [3]), 2.80; in assay [1] (additive final concentration 1.25%), 3.30; in assay [1] (setting [4]), 2.90; in assay [1] (additive final concentration 2.20%), 2.80; in assay [1] (additive final concentration 2.40%), 1.90.

Take `OC[C@@H](O)[C@@H](O)[C@H](O)[C@@H](O)CO` [sorbitol]: the “Efficiency (cfu/ug pUC18)” value in assay [2] (Experiment #1, 2.0% sorbitol added before freezing) is 1.2 × 10^10 cfu/ug pUC18; in assay [2] (Experiment #1, 2.5% sorbitol added before freezing) it was 1.6 × 10^10 cfu/ug pUC18; in assay [2] (Experiment #2, 1.0% sorbitol added before freezing), 1.23 × 10^10 cfu/ug pUC18; in assay [2] (Experiment #2, 2.0% sorbitol added before freezing) it was 1.66 × 10^10 cfu/ug pUC18; in assay [2] (Experiment #2, 2.5% sorbitol added before freezing) it was 1.48 × 10^10 cfu/ug pUC18; in assay [2] (Experiment #3, 1.0% sorbitol added before freezing), 1.03 × 10^10 cfu/ug pUC18. In addition, the “Efficiency (cfu/ug pUC18)” value in assay [2] (Experiment #3, 2.0% sorbitol added before freezing) is given as 1.23 × 10^10 cfu/ug pUC18; in assay [2] (Experiment #3, 2.5% sorbitol added before freezing), 1.33 × 10^10 cfu/ug pUC18; in assay [2] (Experiment #4, 2.0% sorbitol added before freezing), 1.29 × 10^10 cfu/ug pUC18; in assay [2] (Experiment #4, 2.5% sorbitol added before freezing), 1.39 × 10^10 cfu/ug pUC18; in assay [2] (Experiment #5, 2.0% sorbitol added before freezing), 1.60 × 10^10 cfu/ug pUC18; in assay [2] (Experiment #5, 2.5% sorbitol added before freezing) it was 1.60 × 10^10 cfu/ug pUC18. Moreover, the Relative efficiency in assay [1] (setting [5]) was determined as 2.20; in assay [1] (setting [3]) it was 2.80; in assay [1] (additive final concentration 1.50%), 3.10; in assay [1] (setting [4]), 1.50.
